Results reported in patent US20150315188A1, “COMPOUNDS AND METHODS FOR TREATMENT OF HYPERTENSION” (MEDIVATION TECHNOLOGIES, INC., priority 2012, published 2015).

Experiments:
Design in all cases: purchased Milipore (Millipore)
[1] = target: T1, Human adrenergic α1B receptor (Homo sapiens, UniProt P35368); experiment: Radioligand binding, adrenergic α1B (Protocol Group B); settings: Protocol Group B; for Percentage inhibition of ligand binding, Adrenergic α1B (0.1 μM) / inhibition at 0.1 µM: 0.1 μM compound; for Percentage inhibition of ligand binding, Adrenergic α1B (0.3 μM) / inhibition at 0.3 µM: 0.3 μM compound; for inhibition at 0.1 µM: read-out: Percentage inhibition of ligand binding, Adrenergic α1B (0.1 μM); for inhibition at 0.3 µM: read-out: Percentage inhibition of ligand binding, Adrenergic α1B (0.3 μM)
T1 sequence (P35368 1-520): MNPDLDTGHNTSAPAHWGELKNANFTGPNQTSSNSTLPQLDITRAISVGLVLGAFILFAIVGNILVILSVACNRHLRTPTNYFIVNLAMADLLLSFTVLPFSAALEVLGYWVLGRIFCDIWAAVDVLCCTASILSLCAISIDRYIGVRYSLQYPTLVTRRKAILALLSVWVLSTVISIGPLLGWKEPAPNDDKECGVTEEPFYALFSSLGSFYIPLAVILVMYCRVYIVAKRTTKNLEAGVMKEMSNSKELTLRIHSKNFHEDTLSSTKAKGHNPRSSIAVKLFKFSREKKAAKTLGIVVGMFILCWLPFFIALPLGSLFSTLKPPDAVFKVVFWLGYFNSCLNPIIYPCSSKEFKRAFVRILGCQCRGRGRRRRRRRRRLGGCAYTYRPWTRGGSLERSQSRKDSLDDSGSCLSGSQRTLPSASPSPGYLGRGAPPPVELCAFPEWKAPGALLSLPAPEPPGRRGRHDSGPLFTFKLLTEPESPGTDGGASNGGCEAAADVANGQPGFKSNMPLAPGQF
Procedure, shortened: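 Recombinant human α1B membranes incubated with test compound and 0.3 nM [3H]prazosin, 60 min at 25 °C, in 50 mM Tris-HCl pH 7.4, 10 mM MgCl2, 1 mM EDTA; nonspecific binding with 10 μM prazosin. Filter-bound radioactivity counted; values are % inhibition of specific binding or estimated Ki.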

[2] = target: T2, Human adrenergic α2A receptor (Homo sapiens, UniProt P08913); experiment: Radioligand binding, adrenergic α2A (Protocol Group B); settings: Protocol Group B; for Percentage inhibition of ligand binding, Adrenergic α2A (0.1 μM) / inhibition at 0.1 µM: 0.1 μM compound; for Percentage inhibition of ligand binding, Adrenergic α2A (0.3 μM) / inhibition at 0.3 µM: 0.3 μM compound; for inhibition at 0.1 µM: read-out: Percentage inhibition of ligand binding, Adrenergic α2A (0.1 μM); for inhibition at 0.3 µM: read-out: Percentage inhibition of ligand binding, Adrenergic α2A (0.3 μM)
T2 sequence (P08913 1-465): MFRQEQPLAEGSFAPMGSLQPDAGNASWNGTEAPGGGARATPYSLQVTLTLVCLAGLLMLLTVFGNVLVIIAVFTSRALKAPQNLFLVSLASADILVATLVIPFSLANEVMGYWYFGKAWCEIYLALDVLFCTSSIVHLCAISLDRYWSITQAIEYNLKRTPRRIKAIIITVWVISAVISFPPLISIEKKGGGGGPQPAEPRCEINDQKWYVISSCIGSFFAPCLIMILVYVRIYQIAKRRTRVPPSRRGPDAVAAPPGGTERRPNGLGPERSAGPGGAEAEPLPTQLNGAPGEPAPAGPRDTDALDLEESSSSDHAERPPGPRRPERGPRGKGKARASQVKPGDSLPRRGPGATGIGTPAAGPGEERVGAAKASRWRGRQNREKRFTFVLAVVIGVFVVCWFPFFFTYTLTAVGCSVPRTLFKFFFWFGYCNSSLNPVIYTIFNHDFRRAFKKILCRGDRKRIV
Procedure, shortened: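 Membranes from recombinant cells expressing the receptor, in 50 mM Tris-HCl pH 7.4 with 5 mM MgCl2, 1 mM CaCl2, 0.2% BSA; compounds incubated with 2 nM [^3H]MK-912 for 60 min at 25° C. Nonspecific binding defined by 10 μM rauwolscine; filtration, counting; percent inhibition of specific binding, or estimated Ki.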

[3] = target: T3, Human adrenergic α2B receptor (Homo sapiens, UniProt P18089); experiment: Radioligand binding, adrenergic α2B (Protocol Group B); settings: Protocol Group B; for Percentage inhibition of ligand binding, Adrenergic α2B (10 nM) / inhibition at 0.01 µM: 10 nM compound; for Percentage inhibition of ligand binding, Adrenergic α2B (10 nM): 0.01 µM; for Percentage inhibition of ligand binding, Adrenergic α2B (30 nM) / inhibition at 0.03 µM: 30 nM compound; for Percentage inhibition of ligand binding, Adrenergic α2B (30 nM): 0.03 µM; for Percentage inhibition of ligand binding, Adrenergic α2B (0.1 μM) / inhibition at 0.1 µM: 0.1 μM compound; for inhibition at 0.01 µM: read-out: Percentage inhibition of ligand binding, Adrenergic α2B (10 nM); for inhibition at 0.03 µM: read-out: Percentage inhibition of ligand binding, Adrenergic α2B (30 nM); for inhibition at 0.1 µM: read-out: Percentage inhibition of ligand binding, Adrenergic α2B (0.1 μM)
T3 sequence (P18089 1-450): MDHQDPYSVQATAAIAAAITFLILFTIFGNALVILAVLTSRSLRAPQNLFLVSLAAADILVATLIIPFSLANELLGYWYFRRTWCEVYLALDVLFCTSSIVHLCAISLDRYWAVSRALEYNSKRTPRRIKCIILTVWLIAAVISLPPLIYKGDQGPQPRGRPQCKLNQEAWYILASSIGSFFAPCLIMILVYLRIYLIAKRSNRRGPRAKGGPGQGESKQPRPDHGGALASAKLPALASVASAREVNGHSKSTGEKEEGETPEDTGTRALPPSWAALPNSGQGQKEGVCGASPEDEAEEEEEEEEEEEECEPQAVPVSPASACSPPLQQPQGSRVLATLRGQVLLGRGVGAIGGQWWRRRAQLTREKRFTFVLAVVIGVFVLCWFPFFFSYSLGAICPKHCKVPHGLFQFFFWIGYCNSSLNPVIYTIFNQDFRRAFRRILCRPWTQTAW
Procedure, shortened: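 Recombinant human α2B receptor membranes incubated with compounds in 50 mM Tris-HCl pH 7.4, 5 mM MgCl2, 1 mM CaCl2, 0.2% BSA, 1% DMSO vehicle. Non-specific binding defined with 10 μM rauwolscine. Values are percent inhibition of specific binding or estimated Ki.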

Row | Percentage inhibition of ligand binding, Adrenergic α1B (0.1 μM) [1] [%] | Percentage inhibition of ligand binding, Adrenergic α1B (0.3 μM) [1] [%] | Percentage inhibition of ligand binding, Adrenergic α2A (0.1 μM) [2] [%] | Percentage inhibition of ligand binding, Adrenergic α2A (0.3 μM) ([2]; 0.3 µM) [%] | Percentage inhibition of ligand binding, Adrenergic α2B (10 nM) [3] [%] | Percentage inhibition of ligand binding, Adrenergic α2B (30 nM) [3] [%] | Percentage inhibition of ligand binding, Adrenergic α2B (0.1 μM) [3] [%] | inhibition at 0.1 µM [1] [%] | inhibition at 0.3 µM [1] [%] | inhibition at 0.1 µM [2] [%] | inhibition at 0.3 µM [2] [%] | inhibition at 0.01 µM [3] [%] | inhibition at 0.03 µM [3] [%] | inhibition at 0.1 µM [3] [%] | Percentage inhibition of ligand binding, Adrenergic α2A (0.3 μM) [2] [%] | SMILES
1 | 19 | 33 | 19 | 18 | −3 | −3 |  |  |  |  |  |  |  |  |  | Cc1cc(F)cc2c3c(n(CC(C)(O)c4cccnc4)c12)CC1CCCN1C3 (single isomer, unassigned) [76c]
2 | 15 |  | 7 |  |  | 4 |  |  |  |  |  |  |  |  |  | OC(Cn1c2c(c3cc(Cl)ccc31)C1CCCN1CC2)c1ccncc1 (single isomer, unassigned) [143d]
3 | 20 | 51 | 12 | 38 | 54 | 81 | 95 |  |  |  |  |  |  |  |  | OC(Cn1c2c(c3cc(F)ccc31)C1CCCN1CC2)c1ccncc1 (stereo not drawn) [compound 18, 2-(10-fluoro-2,3,5,6-tetrahydro-1H-indolizino[7,8-b]indol-7 (11cH)-yl)-1-(pyridin-4-yl)ethanol]
4 | −11 | −4 | −16 | −5 | −14 | −14 | −2 |  |  |  |  |  |  |  |  | Cc1ccc2c(c1)c1c(n2CC(C)(O)c2cccnc2)CC2CCCN2C1 (stereo not drawn) [41b]
5 |  |  |  |  |  |  |  | -12 | -1 | -10 | 4 | 6 | 8 | 38 |  | Cc1ccc2c(c1)c1c(n2CC(C)(O)c2ccc(C(=O)N(C)CC3CC3)nc2)CCN(C)C1 (stereo not drawn) [compound 33, N-(cyclopropylmethyl)-5-(1-(2,8-dimethyl-3,4-dihydro-1H-pyrido[4,3-b]indol-5(2H)-yl)-2-hydroxypropan-2-yl)-N-methylpicolinamide]
6 | 0 | 15 | 3 |  | 6 | 10 | 33 |  |  |  | 20 |  |  |  |  | Cc1ccc2c(c1)c1c(n2CC(O)c2cccnc2)CC2CCCN2C1 (single isomer, unassigned) [27a]
7 |  |  |  |  |  |  |  | -1 | 9 | -7 | -9 | 1 | 21 |  |  | Cc1ccc2c(c1)c1c(n2CC(O)c2ccc(C(=O)N3CCCC3)nc2)CCN(C)C1 (stereo not drawn) [compound 96, [5-[2-(2,8-dimethyl-3,4-dihydro-1H-pyrido[4,3-b]indol-5-yl)-1-hydroxy-ethyl]-2-pyridyl]-pyrrolidin-1-yl-methanone]
8 | 13 | 41 | 10 |  | 26 | 48 | 67 |  |  |  |  |  |  |  | 20 | Cc1ccc2c(c1)c1c(n2CC(O)c2cccnc2)CC2CCCN2C1 (single isomer, unassigned) [27b]
9 | 18 |  | 37 | 61 | 73 | 91 |  |  | 47 |  |  |  |  | 96 |  | CC(O)(Cn1c2c(c3cc(C(F)(F)F)ccc31)C1CCCN1CC2)c1cccnc1 (single isomer, unassigned) [64a]
